From patent US20240277716A1, “Suppressive T Cell Populations and Methods of Cancer Immunotherapy” (La Jolla Institute for Immunology, priority 2021, published 2024)

How the values were obtained:
Type in all cases: in vivo, mouse
[1] = tested on: B16F10-OVA melanoma cells; experiment: B16F10-OVA melanoma model, PI-3065 in diet: tumor volume and flow cytometry
Protocol: (§1) Tumor experiments. Mice were inoculated with 1-1.5×10^5 B16F10-OVA cells subcutaneously into the right flank. Mice were put on either a control diet or a diet containing a PI3Kδ inhibitor PI-3065 on day 1 or day 5 after tumor inoculation. Diets were prepared using powdered 2018 global rodent diet (Envigo) mixed with or without PI-3065 at 0.5 g/kg, which corresponds to a daily dose of 75 mg/kg as used previously. To pellet the food, 50% v/w water was added to the diet and dough thoroughly mixed, compressed, molded and dried before use. Tumor size was monitored every other day, and tumor harvested at indicated time points for analysis of tumor-infiltrating lymphocytes. Tumor size limit of 15 mm in diameter was not exceeded and volume was calculated as ½×D×d^2, where D is the major axis and d is the minor axis, as described previously^36.
(§2) Murine lymphocytes were isolated from the spleen by mechanical dispersion through a 70-μm cell strainer (Miltenyi) to generate single-cell suspensions. RBC lysis (Biolegend) was performed to remove red blood cells. Tumor samples were harvested and lymphocytes were isolated by dispersing the tumor tissue in 2 ml of PBS, followed by incubation of samples at 37° C. for 15 min with DNase I (Sigma) and Liberase DL (Roche). The suspension was then diluted with MACS buffer and passed through a 70-μm cell strainer to generate a single cell suspension. Colons were collected and rinsed in 1 mM dithiothreitol (DTT) to remove feces. Each colon was cut into 2-3 mm pieces and incubated 3 times in pre-digestion solution (HBSS containing 5% FBS and 2 mM EDTA) at 37° C. for 20 min under high rotation to remove epithelial cells. Then tissues were minced with scissors and incubated with digestion solution (HBSS containing 5% FBS, 100 μg/ml DNase I (Sigma) and 1 mg/ml collagenase (Sigma)) at 37° C. for 20 min under high rotation to get single cell solutions of lamina propria cells. Cells were prepared in staining buffer (PBS with 2% FBS and 2 mM EDTA), FcR blocked (clone 2.4G2, BD Biosciences) and stained with antibodies as indicated below for 30 min at 4° C.; secondary stains were done for selected markers. Samples were then sorted or fixed and intracellularly stained using a FoxP3 transcription factor kit according to manufacturer's instructions (eBioscience). Cell viability was determined using fixable viability dye (ThermoFisher). The following antibodies from BD Biosciences, Biolegend, Miltenyi or eBbioscience were used: anti-human PD-1 (EH12.1, 1:30), CD4 (OKT4, 1:30), CD137 (4B4-1, 1:30), GITR (108-17, 1:30), ICOS (C398.4A, 1:50), CD8A (SKI, 1:30), CD25 (M-A251, 1:20), CD3 (SK7, 1:30), CD127 (eBioRDR5, 1:50), CD45 (HI30, 1:30), CD14 (HCD14, 1:50), CD20 (2H7, 1:50); anti-mouse CD3 (145-2C11, 1:100), CD4 (RM4-5, 1:100), CD8 (53-6.7, 1:100), PD-1 (29F1.A12, 1:100), ST2 (U29-93, 1:100) Ki67 (B56, 1:40), TOX (REA473, 1:40), CD19 (6D5, 1:100), CD45 (30-F11, 1:100), FOXP3 (FJK-16s, 1:100), GZMB (QA16A02, 1:40). All samples were acquired on a BD FACS Fortessa or sorted on a BD FACS Fusion (both BD Biosciences) and analyzed using FlowJo 10.4.1 for subsequent single-cell RNA-seq analysis.

[2] = tested on: TREG cells from tumor, spleen and colonic tissue; experiment: Single-cell RNA-seq and flow cytometry of TREG and CD8+ T cells from tumor, spleen and colon of B16F10-OVA tumor-bearing mice
Protocol: as §2
Murine TREG cells. […] Reads were mapped with Cell Ranger followed by QC (github.com/vijaybioinfo/quality_control) and demultiplexed with bcl2fastq using default parameters. […] Differential expression was calculated with MAST^38 (v1.10.0) DESeq2 (v1.24.0) as previously described^37 and genes with an adjusted P-value <0.05 and a fold change of >log2 0.5 were defined as significant. […]

[3] = tested on: DSS-induced acute colitis; experiment: Dextran Sulfate Sodium (DSS)-induced acute colitis model
Protocol: Colitis experiments. […] Body weight of the mice was monitored. Colon tissues were collected for histological analysis at the endpoint. Whole colons were harvested from mice between cecum and rectum. Stools were flushed out of lumen with PBS. Then colons were fixed with zinc formalin for 5 minutes. Fixed colons were opened longitudinally, flattened, cut into 3 fragments and further fixed in zinc formalin for 48 hours in cassettes. After fixation, samples were transferred to 70% isopropanol for long term storage or H&E staining. Slides were scored blindly according to the following criteria: inflammation, area of infiltration (extent), crypt damage and edema. The colon was divided into 3 equal parts and the middle section was utilized for scoring. Four randomly selected areas were analyzed, and a histological score was determined.

[4] = tested on: colonic CD8+ and CD4+ T cells; experiment: scRNA sequencing of colonic CD8+ and CD4+ T cells under different PI3Kδi dosing regimens
Protocol: as §1
Murine colonic CD4+ and CD8+ T cells. Single-cell RNA-seq was performed by using the 10× platform. Mapping, aggregation, and QC was carried out as described above with the following thresholds: genes per cells range of [300, 4500], UMI content per cell […], percent of mitochondrial counts of <=10%, and a doublet score of <=0.3. Cluster of contaminant cells expressing epithelial, monocyte, and fibroblast markers was eliminated after the first round of clustering. The final number of cells were n=6415 CD4^+ T cells and n=2715 CD8^+ T cells.

Fc1ccc2[nH]ccc2c1-c1nc(N2CCOCC2)c2sc(CN3CCN(CC4CC4)CC3)cc2n1 [PI-3065]
tumor volume ([1]; C57BL/6 wild-type mice, PI-3065 diet vs control): significant decrease
TREG cells in tumor, spleen and colon ([1]; PI3Kδi-treated vs placebo-treated mice): significant decrease
tumor growth ([1]; continuous dosing (for the duration of the experiment)): decrease in tumor growth
CD8+ T cell infiltration in colonic tissue ([1]; continuous dosing only): increased
TREG cell levels in colonic tissue ([1]; continuous dosing only): decreased
intratumoral CD8+ T cells ([1]; high PD-1, increased proliferative and cytotoxic capacity): significant increase
tumor growth ([1]; infrequent dosing (2 days on, 5 days off), 2 cycles): decrease in tumor growth, albeit not significantly
tumor growth ([1]; intermittent dosing (4 days on, 3 days off), 2 cycles): significant decrease in tumor growth
TOX in CD8+ T cells ([1]; post-PI3Kδi): increased
differentially expressed genes in colonic TREG cells ([2]; PI3Kδi vs placebo treatment): 869 genes
colonic TREG subsets (clusters 2 and 8) ([2]; PI3Kδi-treated mice): depleted
CD8+ T cells in colonic tissue ([2]; colonic, but not splenic tissue): significant increase
ratio of CD8+ T cells to ST2 TREG cells ([2]; protein level): substantially increased
body weight ([3]; 2.5% DSS from day 14-20, PI-3065 diet vs placebo): swift reduction in body weight
deaths prior to experimental endpoint ([3]; PI3Kδ inhibitor-treated group, n=10): one
effect on colitis ([3]; PI-3065 diet plus 2.5% DSS): exacerbates colitis
overall colitis score ([3]; inflammation, crypt damage, extent, vs placebo): higher overall colitis score
innate-like CD8+ T cells in colon ([4]; across dosing regimens): dosing-dependent decrease
TC17 and TH17 subsets and pertaining proliferating clusters, share of all cells ([4]; continuous dosing regimen): ~50%
TC17 and TH17 subsets and pertaining proliferating clusters ([4]; other treatment conditions (intermittent, infrequent, control)): nearly completely absent
